In the first assay the test system is SW620 cells (KRAS-G12V). Put plainly: Cell proliferation / cytotoxicity assay (CellTiter-Glo 2.0). The following applies: Homo sapiens, SW-620, 72 h, SW620 cell line (KRAS-G12V), 72 hours incubation, luminescence (CellTiter-Glo 2.0); read-out: 5W620 IC50. It is filed as cell-based. The method, then: Compounds are assayed for inhibition of cell proliferation and killing cancer cells. Cytotoxicity assays are conducted according to the following general procedure. SW620 cells (ATCC CCL-227) are maintained in DMEM Low Glucose (Corning 10-014-CV) media supplemented with 10% fetal bovine serum and 1% PenStrep and grown at 37° C. in 5% CO2. Cells are plated into 96 well flat bottom plates (2 million/plate, ˜20,000/well, 200 μL media/well). The cells are allowed to settle and adhere to the plate bottom overnight. Compounds are diluted in media from a 10 mM stock solution starting at 50 μM, using 2-fold dilutions, in a column in a 96-well plate. Media is removed from the plate containing cells and replaced with media containing diluted compounds. Plates are incubated 72 hours at 37° C. in 5% CO2. Plates were allowed to come to room temperature and 100 μL CellTiter-Glo 2.0 reagent (Promega, G924C) is added at room temperature. Plates are shaken for 2 minutes, then allowed to stand for 15 minutes. Luminescence is read with FLx800 (BioTek Instruments). Data is plotted with GraphPad Prizm 8.0.
Dose response curves for the cytotoxicity of exemplary compounds against SW620 (KRAS-G12V) and MIA PaCa-2 (KRAS-G12C) cell lines are shown in FIG. 1A-1J.
On the technique in general: In ATP-based viability assays light output follows the ATP content of the culture.
`Cc1nc(NC2CCN(C(=O)c3ccccc3Cl)[C@H](C)C2)nc2ccc(-c3cccc4c3OCCO4)cc12` (some centres unmarked) [Compound 27]: the 50% inhibitory concentration (IC50) (in general, the midpoint of a concentration-inhibition curve) was under 5 µM.

Consider `COc1c(Cl)cccc1-c1ccc2nc(NC3CCN(Cc4ccc(Cl)cc4)CC3)nc(C)c2c1` [Compound 28], for which the IC50 is under 5 µM.

Regarding `Cc1cccc(-c2ccc3nc(NC4CCN(Cc5ccc(Cl)cc5)CC4)nc(C)c3c2)c1C` [Compound 29], the concentration for half-maximal inhibition (IC50) is under 5 µM.

As for `Cc1nc(NC2CCN(Cc3ccc(Cl)cc3)CC2)nc2ccc(-c3cc(F)cc4c3OC(C)(C)C(=O)N4)cc12` [Compound 30], the IC50 is under 5 µM.

Take `Cc1nc(NC2CCN(Cc3ccc(Cl)cc3)CC2)ncc1-c1cccc2c1CCCC2` [Compound 31]: the half-maximal inhibitory concentration (IC50) is under 5 µM.

For the compound `Cc1nc(NC2CCN(Cc3ccc(Cl)cc3)CC2)nc2ccc(-c3cccc4c3C(=O)CCC4)cc12` [Compound 32], the IC50 is under 5 µM.

Turning to `Cc1nc(NC2CCN(Cc3ccc(Cl)cc3)CC2)nc2ccc(-c3cccc4c3/C(=N/O)CCC4)cc12` [Compound 33], the IC50 is under 5 µM.

With `Cc1nc(NC(C)c2cccnc2)nc2ccc(-c3cccc4c3CCCC4)cc12` (centres unmarked) [Compound 34], the IC50 was 5 to 10 µM.

On to `Cc1nc(NC2CCN(C(=O)c3ccccc3Cl)CC2)nc2ccc(-c3cccc4c3CCCC4)cc12` [Compound 36], for which the IC50 was 5 to 10 µM.

Regarding `Cc1nc(N[C@@H]2CC[C@@H](Cc3ccc(Cl)cc3)NC2)nc2ccc(-c3cccc4c3CCCC4)cc12` [Compound 37], the IC50 was 5 to 10 µM.

Turning to `Cc1nc(NC2CCN(C(=O)c3ccc(Cl)cc3)CC2)ncc1-c1ccccc1C(C)(O)c1ccccc1` (centres unmarked) [Compound 38], the IC50 fell in the range of 5 to 10 µM.

`COc1cccc(-c2ccc3nc(NC4CCN(Cc5ccc(Cl)cc5)CC4)nc(C)c3c2)c1OC` [Compound 39]: the IC50 is under 5 µM.

`Cc1nc(NC2CCN(Cc3ccc(Cl)cc3)CC2)nc2ccc(-c3cccc4c3OCC3(CC3)CO4)cc12` [Compound 41]: the concentration for half-maximal inhibition (IC50) was in the range of 5 to 10 µM.

Turning to `Cc1nc(NC2CCN(Cc3ccc(Cl)cc3)CC2)nc2ccc(-c3ccnc4[nH]ccc34)cc12` [Compound 42], the half-inhibitory concentration (IC50) is under 5 µM.

`COc1c(Cl)cccc1-c1ccc2nc(NC3CCN(C(=O)c4ccccc4Cl)CC3)nc(C)c2c1` [Compound 43]: the IC50 is 5 to 10 µM.

`Cc1nc(NC2CCN(Cc3ccc(Cl)cc3)CC2)nc2ccc(-c3ccncc3C#N)cc12` [Compound 44]: the IC50 fell in the range of 5 to 10 µM.

On to `Cc1nc(NC2CCN(Cc3ccc(Cl)cc3)CC2)nc2ccc(-c3ccncc3C(N)=O)cc12` [Compound 45], for which the IC50 was under 5 µM.

Consider `Cc1nc(NC2CCN(Cc3ccc(Cl)cc3)CC2)nc2ccc(-c3ccnc(N4CCOCC4)c3F)cc12` [Compound 46], for which the IC50 lay within 5 to 10 µM.

`Cc1nc(NC2CCN(Cc3ccc(Cl)cc3)CC2)nc2ccc(-c3ccnc(N4CCCCC4)c3F)cc12` [Compound 47]: the IC50 is under 5 µM.

Turning to `COc1cccc(-c2ccc3nc(NC4CCN(Cc5ccc(Cl)cc5)CC4)nc(C)c3c2)n1` [Compound 48], the concentration for half-maximal inhibition (IC50) was in the range of 5 to 10 µM.

In the case of `COc1cnccc1-c1ccc2nc(NC3CCN(Cc4ccc(Cl)cc4)CC3)nc(C)c2c1` [Compound 49], the IC50 was under 5 µM.

Turning to `COc1cc(-c2ccc3nc(NC4CCN(Cc5ccc(Cl)cc5)CC4)nc(C)c3c2)ccn1` [Compound 50], the half-inhibitory concentration (IC50) lay within 5 to 10 µM.

Turning to `COc1cc(-c2ccc3nc(NC4CCN(Cc5ccc(Cl)cc5)CC4)nc(C)c3c2)c(Cl)cn1` [Compound 51], the IC50 is under 5 µM.

`Cc1nccc(-c2ccc3nc(NC4CCN(Cc5ccc(Cl)cc5)CC4)nc(C)c3c2)c1Cl` [Compound 52]: the IC50 is under 5 µM.

`COc1nccc(-c2ccc3nc(NC4CCN(Cc5ccc(Cl)cc5)CC4)nc(C)c3c2)c1Cl` [Compound 53]: the IC50 is under 5 µM.

In the case of `Cc1ncccc1-c1ccc2nc(NC3CCN(Cc4ccc(Cl)cc4)CC3)nc(C)c2c1` [Compound 54], the half-inhibitory concentration (IC50) is under 5 µM.

Regarding `COc1ncccc1-c1ccc2nc(NC3CCN(Cc4ccc(Cl)cc4)CC3)nc(C)c2c1` [Compound 55], the IC50 is under 5 µM.

`Cc1nc(NC2CCN(Cc3ccc(Cl)cc3)CC2)nc2ccc(-c3cccnc3OC(C)C)cc12` [Compound 56]: the half-maximal inhibitory concentration (IC50) was under 5 µM.

On to `Cc1nc(NC2CCN(Cc3ccc(Cl)cc3)CC2)nc2ccc(-c3cccnc3OCC(C)C)cc12` [Compound 57], for which the half-inhibitory concentration (IC50) is 5 to 10 µM.

`Cc1nc(NC2CCN(Cc3ccc(Cl)cc3)CC2)nc2ccc(-c3cncc4[nH]ccc34)cc12` [Compound 58]: the IC50 fell in the range of 5 to 10 µM.

As for `Cc1nc(NC2CCN(Cc3ccc(Cl)cc3)CC2)nc2ccc(-c3cncc4ccccc34)cc12` [Compound 59], the concentration for half-maximal inhibition (IC50) was in the range of 5 to 10 µM.

Consider `Cc1ccc2ccc(F)c(-c3ccc4nc(NC5CCNCC5)nc(C)c4c3)c2n1` [Compound 60], for which the IC50 was under 5 µM.

Take `Cc1ccc2ccc(F)c(-c3ccc4nc(NC5CCN(C(=O)c6ccccc6Cl)CC5)nc(C)c4c3)c2n1` [Compound 61]: the half-maximal inhibitory concentration (IC50) lay within 5 to 10 µM.

For the compound `Cc1nc(NC2CCN(Cc3ccc(Cl)cc3)CC2)nc2ccc(-c3cccc4c3NC(=O)CO4)cc12` [Compound 62], the IC50 is under 5 µM.

In the case of `Cc1nc(NC2CCN(Cc3ccc(Cl)cc3)CC2)nc2ccc(-c3cccc4c3C(=O)CCO4)cc12` [Compound 63], the IC50 is under 5 µM.

As for `Cc1nc(NC2CCN(Cc3ccc(Cl)cc3)CC2)nc2ccc(-c3cccc4c3CC(=O)CO4)cc12` [Compound 64], the 50% inhibitory concentration (IC50) was under 5 µM.

For the compound `Cc1nc(NC2CCN(Cc3ccc(Cl)cc3)CC2)nc2ccc(-c3cccc4c3NC(=O)CC4)cc12` [Compound 65], the IC50 was under 5 µM.

On to `Cc1ncccc1-c1ccc2nc(NC3CCN(C(=O)c4ccc(Cl)cc4)CC3)nc(C)c2c1` [Compound 66], for which the IC50 was 5 to 10 µM.

In the case of `Cc1nc(N[C@H]2CC[C@@H](NC3Cc4cccc(Cl)c4C3)CC2)nc2ccc(Br)cc12` (some centres unmarked) [Compound 67], the 50% inhibitory concentration (IC50) fell in the range of 5 to 10 µM.

As to `Cc1nc(N[C@H]2CC[C@@H](NC3Cc4cccc(Cl)c4C3)CC2)nc2ccc(-c3cccc4c3OCCO4)cc12` (some centres unmarked) [Compound 68], the half-inhibitory concentration (IC50) was under 5 µM.

For the compound `Cc1ncccc1-c1ccc2nc(N[C@H]3CC[C@@H](NC4Cc5cccc(Cl)c5C4)CC3)nc(C)c2c1` (some centres unmarked) [Compound 69], the IC50 was 5 to 10 µM.

In the case of `Cc1nc(NC2CCN(Cc3ccc(Cl)cc3)CC2)nc2ccc(-c3cccc4c3OCC(=O)N4)cc12` [Compound 70], the IC50 is 5 to 10 µM.

In the case of `Cc1nc(N[C@H]2CC[C@@H](N)CC2)nc2ccc(-c3cccc4c3OCC(=O)N4)cc12` [Compound 71], the concentration for half-maximal inhibition (IC50) is 5 to 10 µM.

Consider `Cc1nc(N[C@@H]2CC[C@H]3CC[C@@H](C2)N3C(=O)c2ccccc2Cl)nc2ccc(-c3cccc4c3CCCC4)cc12` [Compound 72], for which the IC50 was in the range of 5 to 10 µM.

As for `Cc1nc(N[C@@H]2CC[C@H]3CC[C@@H](C2)N3C(=O)c2ccc(Cl)cc2Cl)nc2ccc(-c3cccc4c3CCCC4)cc12` [Compound 73], the IC50 is 5 to 10 µM.

For the compound `Cc1nccc(-c2ccc3nc(N[C@@H]4CC[C@H]5CC[C@@H](C4)N5Cc4ccc(Cl)cc4)nc(C)c3c2)c1Cl` [Compound 74], the concentration for half-maximal inhibition (IC50) was under 5 µM.

Still in this assay, the particulars now being: SW620 cell line (KRAS-G12V), 72 hours incubation, luminescence (CellTiter-Glo 2.0); read-out: 5W620 IC50.
On to `Cc1nc(NC2CCN(C(=O)c3ccc(Cl)cc3)CC2)nc2ccc(-c3cccc4c3CCCC4)cc12` [Compound 35], for which the half-inhibitory concentration (IC50) was in the range of 5 to 10 µM.

The record behind these values is US12528796B2, “Modulators of RAS GTPase” (Tosk, Inc., priority 2019, dated 2026).
